This passage reports IC50, EC50 and Emax results from patent US9546157B2, “Asymmetric piperidinyl-substituted ureas as medicines” (Helsinn Healthcare SA, priority 2014, dated 2017).

Experiment [1] addresses T1, GHSR1a (Homo sapiens, UniProt Q92847).
T1 construct: expressed in transfected cells; host or cells: HEK293
As to the kind of experiment: Calcium FLIPR assay, GHSR-1a antagonism (reduction of ghrelin response). The experiment is classed as cell-based. Conditions: HEK293/GHSR1a cells, ghrelin 10 nM. The method in brief:
(§1)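 Uses HEK293 cells expressing GHSR1a, loaded with calcium dye, with FLIPR fluorescence followed for 2 min after addition at t=20 s. Agonism: compound alone. Antagonism: compound with 10 nM ghrelin, potency from reduction of ghrelin response; EC50/IC50 from dose-response curves.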

Experiment [2] has as its target T1, GHSR1a. The experiment can be described thus: Calcium FLIPR assay, GHSR-1a agonism. It counts as cell-based. Set-up: Emax: unit not given here. Conditions: HEK293/GHSR1a cells. The method in brief:
as §1

Molecules are shown by their SMILES. Some results are limits rather than exact numbers.

T1 sequence (Q92847 whole entry): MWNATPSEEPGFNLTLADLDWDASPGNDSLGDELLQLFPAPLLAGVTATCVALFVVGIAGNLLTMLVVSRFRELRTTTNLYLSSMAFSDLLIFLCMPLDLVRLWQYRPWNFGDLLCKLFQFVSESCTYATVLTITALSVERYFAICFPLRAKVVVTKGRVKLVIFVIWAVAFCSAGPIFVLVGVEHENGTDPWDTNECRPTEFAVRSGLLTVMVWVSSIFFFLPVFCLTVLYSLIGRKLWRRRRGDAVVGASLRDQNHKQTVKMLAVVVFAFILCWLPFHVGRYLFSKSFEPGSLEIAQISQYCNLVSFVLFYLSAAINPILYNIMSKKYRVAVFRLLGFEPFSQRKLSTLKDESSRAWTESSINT

Broadly, the IC50 is the concentration that gives 50% inhibition. A word on the EC50: it is the concentration that produces a half-maximal response. For `CC(NC(=O)C(C)N1CCN(C)CC1)c1ccc(-c2cnccn2)c(Cl)c1Cl` (stereo not shown) [Compound H0853, N-(1-(2,3-dichloro-4-(pyrazin-2-yl)phenyl)ethyl)-2-(4-methylpiperazin-1-yl)propanamide], the half-inhibitory concentration (IC50) at GHSR1a [1] was determined as 1500 nM. Further, the EC50 at GHSR1a [2] is > 30000 nM.

In the case of `CC(NC(=O)N(C)C1CCN(C)C1)c1ccc(-c2cccnc2)c(Cl)c1Cl` (stereo not shown) [Compound H0526, 3-(1-(2,3-dichloro-4-(pyridin-3-yl)phenyl)ethyl)-1-methyl-1-(1-methylpyrrolidin-3-yl)urea], the IC50 on GHSR1a [1] was determined as 57 nM. At GHSR1a [2], the EC50 is > 30000 nM.

As for `CC(NC(=O)N(C)C1CCN(C)CC1)c1ccc(CF)c(Cl)c1Cl` (stereo not shown) [Compound H0634, 3-(1-(2,3-dichloro-4-(fluoromethyl)phenyl)ethyl)-1-methyl-1-(1-methylpiperidin-4-yl)urea], at GHSR1a [1], the IC50 stood at 13 nM. Moreover, the EC50 at GHSR1a [2] stood at 37 nM.

`CC(NC(=O)N(C)C1CCN(C)CC1)c1ccc(-c2ccc(N)cc2)c(Cl)c1Cl` (stereo not shown) [Compound H0517, 3-(1-(4′-amino-2,3-dichloro-[1,1′-biphenyl]-4-yl)ethyl)-1-methyl-1-(1-methylpiperidin-4-yl)urea]: the IC50 on GHSR1a [1] is 19 nM. For the same compound, the EC50 on GHSR1a [2] is > 30000 nM.

With `CC(NC(=O)N(C)C1CCN(C)CC1)c1ccc(-c2nc(C3CC3)no2)c(Cl)c1Cl` (stereo not shown) [Compound H0851, 3-(1-(2,3-dichloro-4-(3-cyclopropyl-1,2,4-oxadiazol-5-yl)phenyl)ethyl)-1-methyl-1-(1-methylpiperidin-4-yl)urea], on GHSR1a [1], the IC50 came to 11 nM. In addition, on GHSR1a [2], the EC50 was 6 nM and the Emax came out at 3320.

With `CC(NC(=O)N(C)C1CCN(C)CC1)c1ccc(-c2ccc(CF)s2)c(Cl)c1Cl` (stereo not shown) [Compound H0668, 3-(1-(2,3-dichloro-4-(5-(fluoromethyl)thiophen-2-yl)phenyl)ethyl)-1-methyl-1-(1-methylpiperidin-4-yl)urea], the IC50 at GHSR1a [1] came to 8 nM. Moreover, at GHSR1a [2], the EC50 amounted to 10 nM and the Emax worked out at 2168.

Take `CC(NC(=O)N(C)C1CCN(C)CC1)c1ccc(C#CCc2cccs2)c(Cl)c1Cl` (stereo not shown) [Compound H0785, 3-(1-(2,3-dichloro-4-(3-(thiophen-2-yl)prop-1-yn-1-yl)phenyl)ethyl)-1-methyl-1-(1-methylpiperidin-4-yl)urea]: the IC50 at GHSR1a [1] came out at 33 nM. On GHSR1a [2], the EC50 was 90 nM and the Emax was determined as 2869.

For `C=Cc1ccc(C(C)NC(=O)N(C)C2CCN(C)CC2)c(Cl)c1Cl` (stereo not shown) [Compound H0626, 3-(1-(2,3-dichloro-4-vinylphenyl)ethyl)-1-methyl-1-(1-methylpiperidin-4-yl)urea], the IC50 on GHSR1a [1] came to 4 nM. Also, on GHSR1a [2], the EC50 is 15 nM and the Emax is listed as 3835.

In the case of `CN1CCC(N(C)C(=O)NC(C#N)c2ccc(-c3cncnc3)c(Cl)c2Cl)CC1` (stereo not shown) [Compound H0631, 3-(cyano(2,3-dichloro-4-(pyrimidin-5-yl)phenyl)methyl)-1-methyl-1-(1-methylpiperidin-4-yl)urea], the IC50 at GHSR1a [1] was 719 nM. At GHSR1a [2], the EC50 was > 30000 nM.

As to `CC(=O)/C=C(\Cl)c1ccc(C(C)NC(=O)N(C)C2CCN(C)CC2)c(Cl)c1Cl` (stereo not shown) [Compound H0702, (Z)-3-(1-(2,3-dichloro-4-(1-chloro-3-oxobut-1-en-1-yl)phenyl)ethyl)-1-methyl-1-(1-methylpiperidin-4-yl)urea], the IC50 at GHSR1a [1] is 96 nM. On GHSR1a [2], the EC50 is 1100 nM and the Emax was 1940.

As to `COC(=O)c1ccc(CN(C(=O)NC(C)c2ccc(-c3cccnc3)c(Cl)c2Cl)C2CCN(C)CC2)cc1` (stereo not shown) [Compound H0539, methyl 4-((3-(1-(2,3-dichloro-4-(pyridin-3-yl)phenyl)ethyl)-1-(1-methylpiperidin-4-yl)ureido)methyl)benzoate], the IC50 on GHSR1a [1] was found to be 9 nM. Further, on GHSR1a [2], the EC50 is > 30000 nM.

Turning to `CN1CCC(N(C)C(=O)NC2(c3ccc(-c4cncnc4)c(Cl)c3Cl)CC2)CC1` [Compound H0673, 3-(1-(2,3-dichloro-4-(pyrimidin-5-yl)phenyl)cyclopropyl)-1-methyl-1-(1-methylpiperidin-4-yl)urea], the IC50 at GHSR1a [1] was > 1000 nM. Moreover, the EC50 on GHSR1a [2] is > 30000 nM.

On to `CC(NC(=O)N(O)C1CCN(C)CC1)c1ccc(-c2cncnc2)c(Cl)c1Cl` (stereo not shown) [Compound H0624, 3-(1-(2,3-dichloro-4-(pyrimidin-5-yl)phenyl)ethyl)-1-hydroxy-1-(1-methylpiperidin-4-yl)urea], for which the IC50 at GHSR1a [1] stood at 253 nM. Also, the EC50 at GHSR1a [2] is > 30000 nM.

As to `CC(NC(=O)N(C)C1CCN(C)CC1)c1ccc(-c2nnco2)c(Cl)c1Cl` (stereo not shown) [Compound H0595, 3-(1-(2,3-dichloro-4-(1,3,4-oxadiazol-2-yl)phenyl)ethyl)-1-methyl-1-(1-methylpiperidin-4-yl)urea], at GHSR1a [1], the IC50 stood at 28 nM. Further, at GHSR1a [2], the EC50 is 43 nM.

`CC(NC(=O)N(C)C1CCN(C)CC1)c1ccc(C#Cc2ccc(C(N)=O)s2)c(Cl)c1Cl` (stereo not shown) [Compound H0776, 5-((2,3-dichloro-4-(1-(3-methyl-3-(1-methylpiperidin-4-yl)ureido)ethyl)phenyl)ethynyl)thiophene-2-carboxamide]: the IC50 on GHSR1a [1] amounted to 120 nM. Besides, on GHSR1a [2], the EC50 was > 4000 nM.

Take `CC(NC(=O)N(C)C1CCN(C)CC1)c1ccc(-c2cncc(CF)c2)c(Cl)c1Cl` (stereo not shown) [Compound H0638, 3-(1-(2,3-dichloro-4-(5-(fluoromethyl)pyridin-3-yl)phenyl)ethyl)-1-methyl-1-(1-methylpiperidin-4-yl)urea]: the IC50 on GHSR1a [1] is 57 nM. For the same compound, the EC50 on GHSR1a [2] is > 30000 nM.

With `CC(NC(=O)N(C)C1CCN(C)CC1)c1ccc(C=O)c(Cl)c1Cl` (stereo not shown) [Compound H0640, 3-(1-(2,3-dichloro-4-formylphenyl)ethyl)-1-methyl-1-(1-methylpiperidin-4-yl)urea], the IC50 at GHSR1a [1] turned out to be 103 nM. Moreover, the EC50 on GHSR1a [2] is > 30000 nM.

For the compound `CC(NC(=O)N(C)C1CCN(C)CC1)c1ccc(-c2cncc(N)n2)c(Cl)c1Cl` (stereo not shown) [Compound H0780, 3-(1-(4-(6-aminopyrazin-2-yl)-2,3-dichlorophenyl)ethyl)-1-methyl-1-(1-methylpiperidin-4-yl)urea], at GHSR1a [1], the IC50 was determined as 63 nM. The EC50 on GHSR1a [2] was > 30000 nM.

Take `CN1CCC(N(C)C(=O)NC2(c3ccc(-c4cncnc4)c(Cl)c3Cl)CCOCC2)CC1` [Compound H0727, 3-(4-(2,3-dichloro-4-(pyrimidin-5-yl)phenyl)tetrahydro-2H-pyran-4-yl)-1-methyl-1-(1-methylpiperidin-4-yl)urea]: the IC50 at GHSR1a [1] was found to be 3600 nM. For the same compound, the EC50 at GHSR1a [2] was > 30000 nM.

On to `CC(NC(=O)N(C)C1CCN(C)CC1)c1ccc(-c2cnc[nH]2)c2ccccc12` (stereo not shown) [Compound H0599, 3-(1-(4-(1H-imidazol-5-yl)naphthalen-1-yl)ethyl)-1-methyl-1-(1-methylpiperidin-4-yl)urea], for which the IC50 on GHSR1a [1] turned out to be 212 nM. At GHSR1a [2], the EC50 was found to be 478 nM.

In the case of `COC(=O)C(NC(=O)N(C)C1CCN(C)CC1)c1ccc(-c2cnccn2)c(Cl)c1Cl` (stereo not shown) [Compound H0922, methyl 2-(2,3-dichloro-4-(pyrazin-2-yl)phenyl)-2-(3-methyl-3-(1-methylpiperidin-4-yl)ureido)acetate], the IC50 on GHSR1a [1] is 2800 nM. Besides, the EC50 at GHSR1a [2] was > 30000 nM.

`CC(NC(=O)N(C)C1CCN(C)CC1)c1ccc(-c2cncc(-c3cccs3)c2)c(Cl)c1Cl` (stereo not shown) [Compound H0717, 3-(1-(2,3-dichloro-4-(5-(thiophen-2-yl)pyridin-3-yl)phenyl)ethyl)-1-methyl-1-(1-methylpiperidin-4-yl)urea]: the IC50 at GHSR1a [1] worked out at 396 nM. Besides, on GHSR1a [2], the EC50 is > 30000 nM.

For `CC(NC(=O)N(C)C1CCN(C)CC1)c1ccc(-c2cncc(CC#N)c2)c(Cl)c1Cl` (stereo not shown) [Compound H0699, 3-(1-(2,3-dichloro-4-(5-(cyanomethyl)pyridin-3-yl)phenyl)ethyl)-1-methyl-1-(1-methylpiperidin-4-yl)urea], the IC50 at GHSR1a [1] is 171 nM. The EC50 on GHSR1a [2] is > 30000 nM.

As to `C#Cc1ccc(C(C)NC(=O)N(OC)C2CCN(C)CC2)c(Cl)c1Cl` (stereo not shown) [Compound H0742, 3-(1-(2,3-dichloro-4-ethynylphenyl)ethyl)-1-methoxy-1-(1-methylpiperidin-4-yl)urea], on GHSR1a [1], the IC50 turned out to be 54 nM. The EC50 at GHSR1a [2] is > 30000 nM.

Turning to `CC(NC(=O)N(C)C1CCN(C)CC1)c1ccc(-c2cnccn2)c(Cl)c1F` (stereo not shown) [Compound H0856, 3-(1-(3-chloro-2-fluoro-4-(pyrazin-2-yl)phenyl)ethyl)-1-methyl-1-(1-methylpiperidin-4-yl)urea], on GHSR1a [1], the IC50 stood at 339 nM. Further, the EC50 at GHSR1a [2] is > 30000 nM.

In the case of `CC(NC(=O)N(C)C1CCCCC1)c1ccc(-c2cncnc2)c(Cl)c1Cl` (stereo not shown) [Compound H0584, 1-cyclohexyl-3-(1-(2,3-dichloro-4-(pyrimidin-5-yl)phenyl)ethyl)-1-methylurea], on GHSR1a [1], the IC50 stood at 1100 nM. Further, the EC50 at GHSR1a [2] was > 30000 nM.

For the compound `CCON(C(=O)NC(CC1CC1)c1ccc(-c2cnccn2)c(Cl)c1Cl)C1CCN(C)CC1` (stereo not shown) [Compound H0752, 3-(2-cyclopropyl-1-(2,3-dichloro-4-(pyrazin-2-yl)phenyl)ethyl)-1-ethoxy-1-(1-methylpiperidin-4-yl)urea], on GHSR1a [1], the IC50 is 100 nM. Besides, on GHSR1a [2], the EC50 was > 30000 nM.

In the case of `COc1cccc(-c2ccc(C(C)NC(=O)N(C)C3CCN(C)CC3)c(Cl)c2Cl)c1` (stereo not shown) [Compound H0606, 3-(1-(2,3-dichloro-3′-methoxy-[1,1′-biphenyl]-4-yl)ethyl)-1-methyl-1-(1-methylpiperidin-4-yl)urea], the IC50 on GHSR1a [1] is 24 nM. Also, on GHSR1a [2], the EC50 amounted to 31 nM and the Emax is 2336.

In the case of `CC(NC(=O)N(C)C1CCN(C)CC1)c1ccc(-c2cncc(N3CCCC3)c2)c(Cl)c1Cl` (stereo not shown) [Compound H0719, 3-(1-(2,3-dichloro-4-(5-(pyrrolidin-1-yl)pyridin-3-yl)phenyl)ethyl)-1-methyl-1-(1-methylpiperidin-4-yl)urea], at GHSR1a [1], the IC50 came out at 780 nM. Also, the EC50 on GHSR1a [2] is > 30000 nM.
